Measurements from article PMC11945486, “TAS1R2/TAS1R3 Single-Nucleotide Polymorphisms Affect Sweet Taste Receptor Activation by Sweeteners: The SWEET Project” (Nutrients, 2025).

Target: T1, human TAS1R2-R838K (subunit alone) (Homo sapiens, UniProt Q8TE23, R838K)
T1 construct: expressed in transfected cells; host or cells: HEK293T stably expressing Gα16gust44
T1 sequence (Q8TE23 20-839 R838K): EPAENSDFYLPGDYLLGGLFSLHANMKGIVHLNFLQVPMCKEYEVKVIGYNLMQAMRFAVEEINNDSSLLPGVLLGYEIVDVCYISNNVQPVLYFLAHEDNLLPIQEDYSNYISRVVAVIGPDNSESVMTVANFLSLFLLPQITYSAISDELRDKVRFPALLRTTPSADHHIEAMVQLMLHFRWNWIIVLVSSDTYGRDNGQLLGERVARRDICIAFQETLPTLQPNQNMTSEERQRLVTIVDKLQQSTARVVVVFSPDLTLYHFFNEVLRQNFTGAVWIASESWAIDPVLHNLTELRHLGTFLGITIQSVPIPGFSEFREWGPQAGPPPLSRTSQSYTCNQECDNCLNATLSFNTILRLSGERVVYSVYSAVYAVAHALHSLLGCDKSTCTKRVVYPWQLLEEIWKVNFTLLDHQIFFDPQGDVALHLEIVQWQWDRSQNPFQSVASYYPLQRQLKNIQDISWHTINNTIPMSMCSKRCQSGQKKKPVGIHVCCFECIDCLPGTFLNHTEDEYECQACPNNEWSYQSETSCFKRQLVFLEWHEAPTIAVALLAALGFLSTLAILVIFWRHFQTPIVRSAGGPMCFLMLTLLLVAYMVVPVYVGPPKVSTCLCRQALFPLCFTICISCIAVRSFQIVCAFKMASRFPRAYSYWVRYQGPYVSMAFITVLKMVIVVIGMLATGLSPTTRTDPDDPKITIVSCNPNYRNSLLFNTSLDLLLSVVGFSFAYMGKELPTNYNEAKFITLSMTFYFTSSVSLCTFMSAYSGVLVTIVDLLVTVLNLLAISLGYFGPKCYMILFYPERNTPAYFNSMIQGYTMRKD
Assay: Calcium mobilisation assay, TAS1R2-R838K subunit alone
Type: cell-based
Text: The coding sequences for TAS1R2 and TAS1R3 were commercially synthesised, and the human codon was optimised for expression in human cells. The coding sequences of human TAS1R2 and TAS1R3 were subcloned and inserted into the mammalian expression vectors pcDNA6/myc-HisA and pcDNA4/myc-HisA (Invitrogen; Thermo Fisher Scientific; Illkirch, France) between the EcoRI and NotI restriction sites, generating the plasmids pcDNA6-TAS1R2 and pcDNA4-TAS1R3, respectively. To increase protein expression in mammalian cells, an upstream start codon was used, which was a sequence called MAX, corresponding to the QBI SP163 element also described in pcDNA4-HisMax (Invitrogen; Thermo Fisher Scientific; Illkirch, France). To measure the expression level of the receptor by immunohistochemistry, we used the FLAG sequence ([…]) in the C-terminal position, which encodes the FLAG tag epitope. […]
The HEK293T cells were kindly provided by Jay P. Slack (Givaudan Flavors Corporation; Cincinnati, OH, USA). […] The fluorescence intensity was measured for 90 s (excitation 488 nm, emission 510 nm) in an automated fluorometric FlexStation®3 Multi-Mode microplate reader (Molecular Devices; San Jose, CA, USA). […] The Ca^2+ changes were expressed as fractional changes in fluorescent light intensity: ΔF/F = (F − F0)/F0, where F was the fluorescent light intensity at each point, and F0 was the value of emitted fluorescent light prior to stimulus application. To calculate dose–response relationships, the changes in fluorescence upon stimulus application were averaged, mock-subtracted and baseline-corrected. […] The half-maximal effective concentrations (EC50 values) and maximal signal amplitudes were calculated using SigmaPlot software (version 15.0) (Systat Software; San Jose, CA, USA).
For in vitro calcium mobilisation assay performed on hTAS1R2-SNPs, hTAS1R3-SNPs and mTAS1R3-I60T, 6 to 7 concentrations were tested for each sweet compound, plus buffer alone. All concentration–receptor combinations were measured in duplicate, and each experiment was repeated at least 4 times (8 wells/concentration). […]

EC50: 92.4 ± 19.7 µM
R1 = Variant EC50/WT EC50: 1.0
Max ΔF/F0 (maximal signal amplitude): 0.35 ± 0.03
Compound: C=C(C)[C@@H]1CC=C(/C=N/O)CC1 [Perillartine, perillartine]
